Drawing on publication PMC6458995, “MAP4K4 Inhibition Promotes Survival of Human Stem Cell-Derived Cardiomyocytes and Reduces Infarct Size In Vivo” (Cell Stem Cell, 2019), this text covers remaining activity and residual activity for 5 molecules.

Assay in all cases: Dundee kinase panel
Common to all, as to type: biochemical
Common to all, as to details: for remaining activity at 1 µM: read-out: residual activity

One test addresses T1, OSR1 (Homo sapiens, UniProt O95747).
T1 construct: lines 1-140) and Reaction Biology
The protocol: (§1) Compounds were screened at 1 μM. For key hits, pIC50 values were then determined by HTRF as above. […] Stability in mouse and human liver microsomes was determined by Cyprotex.

The next test addresses T2, IKKe (Homo sapiens, UniProt Q14164).
T2 construct: lines 1-140) and Reaction Biology
T2 sequence (Q14164 1-716): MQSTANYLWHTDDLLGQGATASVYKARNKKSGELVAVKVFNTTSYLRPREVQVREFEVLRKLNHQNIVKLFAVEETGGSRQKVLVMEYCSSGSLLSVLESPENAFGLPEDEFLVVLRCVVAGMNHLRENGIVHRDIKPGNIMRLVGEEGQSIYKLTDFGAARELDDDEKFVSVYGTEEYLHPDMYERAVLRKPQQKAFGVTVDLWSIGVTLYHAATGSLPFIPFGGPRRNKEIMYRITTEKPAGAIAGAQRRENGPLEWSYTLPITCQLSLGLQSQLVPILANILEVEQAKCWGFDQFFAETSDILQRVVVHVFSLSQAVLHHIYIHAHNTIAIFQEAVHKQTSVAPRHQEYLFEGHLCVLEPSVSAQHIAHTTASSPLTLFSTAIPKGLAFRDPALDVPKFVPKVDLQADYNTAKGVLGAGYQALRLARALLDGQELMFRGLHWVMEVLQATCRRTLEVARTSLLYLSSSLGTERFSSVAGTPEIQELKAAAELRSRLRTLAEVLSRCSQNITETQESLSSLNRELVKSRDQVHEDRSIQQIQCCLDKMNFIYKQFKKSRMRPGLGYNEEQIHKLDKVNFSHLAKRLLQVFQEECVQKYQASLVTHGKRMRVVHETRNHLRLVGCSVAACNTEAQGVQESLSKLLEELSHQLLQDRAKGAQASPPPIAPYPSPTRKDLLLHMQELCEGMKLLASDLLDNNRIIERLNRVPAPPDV
How it is done: as §1

The target in another test is T3, TAK1 (Homo sapiens, UniProt O43318).
T3 construct: lines 1-140) and Reaction Biology
T3 sequence (O43318 1-303 limits assumed): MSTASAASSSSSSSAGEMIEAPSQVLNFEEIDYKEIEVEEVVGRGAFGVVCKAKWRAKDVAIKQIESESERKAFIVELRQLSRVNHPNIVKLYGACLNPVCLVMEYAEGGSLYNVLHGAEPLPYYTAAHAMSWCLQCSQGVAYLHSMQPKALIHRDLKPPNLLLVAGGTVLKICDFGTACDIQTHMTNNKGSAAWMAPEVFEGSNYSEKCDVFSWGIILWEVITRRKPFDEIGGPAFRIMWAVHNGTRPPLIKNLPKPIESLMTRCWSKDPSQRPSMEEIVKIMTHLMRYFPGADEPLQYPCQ
How it is done: as §1

The target in the next test is T4, BRK (Homo sapiens, UniProt Q13882).
T4 construct: lines 1-140) and Reaction Biology
How it is done: as §1

For a further test, the target named is T5, EPH-A2 (Homo sapiens, UniProt P29317).
T5 construct: lines 1-140) and Reaction Biology
How it is done: as §1

A further test concerns the target T6, TESK1 (Homo sapiens, UniProt Q15569).
T6 construct: lines 1-140) and Reaction Biology
The protocol: as §1

For another test, the target named is T7, ULK1 (Homo sapiens, UniProt O75385).
T7 construct: lines 1-140) and Reaction Biology
T7 sequence (O75385 1-1050): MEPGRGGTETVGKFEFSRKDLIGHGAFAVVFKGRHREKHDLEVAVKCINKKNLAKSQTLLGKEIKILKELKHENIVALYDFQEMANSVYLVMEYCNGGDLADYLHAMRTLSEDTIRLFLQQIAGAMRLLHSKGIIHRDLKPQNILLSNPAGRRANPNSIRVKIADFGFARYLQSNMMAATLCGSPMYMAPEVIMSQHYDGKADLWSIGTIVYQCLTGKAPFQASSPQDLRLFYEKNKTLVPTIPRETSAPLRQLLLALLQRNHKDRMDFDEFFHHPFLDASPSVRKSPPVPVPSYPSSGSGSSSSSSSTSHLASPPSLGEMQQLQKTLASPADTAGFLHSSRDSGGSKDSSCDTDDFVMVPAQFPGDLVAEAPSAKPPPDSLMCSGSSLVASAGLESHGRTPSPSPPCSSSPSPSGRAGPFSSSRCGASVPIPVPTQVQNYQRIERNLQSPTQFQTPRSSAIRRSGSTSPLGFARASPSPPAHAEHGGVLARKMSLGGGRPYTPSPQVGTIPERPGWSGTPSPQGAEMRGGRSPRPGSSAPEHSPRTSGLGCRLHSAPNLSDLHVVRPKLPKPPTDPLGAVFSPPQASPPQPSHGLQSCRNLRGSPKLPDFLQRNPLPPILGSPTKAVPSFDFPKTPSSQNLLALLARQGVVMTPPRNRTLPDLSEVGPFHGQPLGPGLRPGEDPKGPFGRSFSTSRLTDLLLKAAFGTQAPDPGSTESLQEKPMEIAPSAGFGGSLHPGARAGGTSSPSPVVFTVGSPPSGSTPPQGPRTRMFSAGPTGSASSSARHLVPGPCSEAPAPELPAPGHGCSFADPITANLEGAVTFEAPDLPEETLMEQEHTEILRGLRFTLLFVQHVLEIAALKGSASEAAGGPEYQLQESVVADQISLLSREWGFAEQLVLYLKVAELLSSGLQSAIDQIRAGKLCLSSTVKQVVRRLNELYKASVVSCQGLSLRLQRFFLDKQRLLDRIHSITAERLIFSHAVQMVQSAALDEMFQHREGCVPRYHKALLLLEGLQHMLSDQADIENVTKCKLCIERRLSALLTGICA
The protocol:
as §1

A further test has as its target T8, PIM3 (Homo sapiens, UniProt Q86V86).
T8 construct: lines 1-140) and Reaction Biology
How it is done:
as §1

T6 sequence (Q15569 whole entry): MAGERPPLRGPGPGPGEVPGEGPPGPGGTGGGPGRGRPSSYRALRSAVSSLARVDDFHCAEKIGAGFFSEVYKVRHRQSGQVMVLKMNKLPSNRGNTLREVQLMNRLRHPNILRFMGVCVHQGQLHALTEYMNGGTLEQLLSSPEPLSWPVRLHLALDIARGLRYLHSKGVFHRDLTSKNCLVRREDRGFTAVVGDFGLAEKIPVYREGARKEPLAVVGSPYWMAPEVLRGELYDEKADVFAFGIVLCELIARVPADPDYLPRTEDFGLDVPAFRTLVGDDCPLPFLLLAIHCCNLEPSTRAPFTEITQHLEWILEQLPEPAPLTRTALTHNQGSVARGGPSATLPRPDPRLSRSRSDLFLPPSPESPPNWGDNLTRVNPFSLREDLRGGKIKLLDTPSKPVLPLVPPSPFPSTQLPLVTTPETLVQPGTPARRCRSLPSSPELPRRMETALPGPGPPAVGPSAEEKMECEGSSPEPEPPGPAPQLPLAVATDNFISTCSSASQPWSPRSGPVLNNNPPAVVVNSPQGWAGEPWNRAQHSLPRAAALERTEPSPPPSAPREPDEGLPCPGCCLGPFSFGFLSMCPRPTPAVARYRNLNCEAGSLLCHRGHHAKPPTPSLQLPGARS
T4 sequence (Q13882 whole entry): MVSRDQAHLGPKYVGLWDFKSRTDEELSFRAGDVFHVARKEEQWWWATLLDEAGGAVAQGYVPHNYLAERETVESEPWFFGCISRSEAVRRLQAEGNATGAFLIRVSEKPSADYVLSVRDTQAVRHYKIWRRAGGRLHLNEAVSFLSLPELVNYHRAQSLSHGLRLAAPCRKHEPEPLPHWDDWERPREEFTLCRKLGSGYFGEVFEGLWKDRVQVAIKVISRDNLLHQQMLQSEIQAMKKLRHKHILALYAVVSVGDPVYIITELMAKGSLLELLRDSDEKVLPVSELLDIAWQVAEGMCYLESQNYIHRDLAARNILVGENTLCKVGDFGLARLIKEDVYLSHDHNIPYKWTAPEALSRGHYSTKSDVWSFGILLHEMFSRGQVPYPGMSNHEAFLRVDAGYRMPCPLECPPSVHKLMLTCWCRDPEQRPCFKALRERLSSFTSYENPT
T5 sequence (P29317 24-976): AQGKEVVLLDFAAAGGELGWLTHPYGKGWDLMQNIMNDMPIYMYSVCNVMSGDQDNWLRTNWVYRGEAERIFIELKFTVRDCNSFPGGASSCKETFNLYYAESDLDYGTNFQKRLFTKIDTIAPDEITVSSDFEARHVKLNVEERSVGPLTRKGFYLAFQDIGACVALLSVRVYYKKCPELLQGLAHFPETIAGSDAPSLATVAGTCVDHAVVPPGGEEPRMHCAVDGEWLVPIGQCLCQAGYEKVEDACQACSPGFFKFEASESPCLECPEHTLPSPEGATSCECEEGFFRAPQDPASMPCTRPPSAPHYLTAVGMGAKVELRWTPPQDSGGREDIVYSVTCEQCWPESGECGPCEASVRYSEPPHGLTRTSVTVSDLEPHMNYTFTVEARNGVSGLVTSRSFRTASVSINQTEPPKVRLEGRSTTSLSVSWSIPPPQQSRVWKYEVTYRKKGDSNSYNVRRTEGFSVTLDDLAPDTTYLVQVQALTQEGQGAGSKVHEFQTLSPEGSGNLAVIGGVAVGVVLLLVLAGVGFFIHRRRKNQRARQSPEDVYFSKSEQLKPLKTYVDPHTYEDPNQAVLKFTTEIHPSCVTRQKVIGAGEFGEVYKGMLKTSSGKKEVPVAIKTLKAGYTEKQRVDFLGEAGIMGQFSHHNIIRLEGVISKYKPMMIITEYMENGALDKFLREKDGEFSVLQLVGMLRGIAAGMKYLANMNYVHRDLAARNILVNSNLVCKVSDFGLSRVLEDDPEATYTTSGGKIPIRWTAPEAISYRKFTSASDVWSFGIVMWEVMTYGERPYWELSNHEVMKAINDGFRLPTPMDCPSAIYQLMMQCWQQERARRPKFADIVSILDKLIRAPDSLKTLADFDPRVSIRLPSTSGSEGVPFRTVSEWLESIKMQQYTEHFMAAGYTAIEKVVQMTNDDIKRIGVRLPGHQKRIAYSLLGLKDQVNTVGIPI
T1 sequence (O95747 whole entry): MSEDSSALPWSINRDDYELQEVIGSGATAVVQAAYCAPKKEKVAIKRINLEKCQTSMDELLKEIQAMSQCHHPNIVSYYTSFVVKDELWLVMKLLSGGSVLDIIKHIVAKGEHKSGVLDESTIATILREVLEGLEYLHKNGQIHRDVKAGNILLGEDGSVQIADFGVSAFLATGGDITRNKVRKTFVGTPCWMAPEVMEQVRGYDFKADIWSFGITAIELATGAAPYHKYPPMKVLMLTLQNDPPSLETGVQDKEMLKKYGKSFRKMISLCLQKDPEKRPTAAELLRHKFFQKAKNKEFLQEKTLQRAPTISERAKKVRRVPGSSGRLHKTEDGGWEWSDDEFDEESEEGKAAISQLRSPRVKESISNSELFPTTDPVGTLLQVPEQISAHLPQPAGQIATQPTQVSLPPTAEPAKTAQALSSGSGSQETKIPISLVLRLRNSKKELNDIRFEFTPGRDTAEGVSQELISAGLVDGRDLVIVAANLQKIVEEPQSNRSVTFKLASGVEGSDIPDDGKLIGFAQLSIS

Consider `COCCOc1ccc(-c2cn(-c3ccccc3)c3nc[nH]c(=O)c23)cc1` [DMX-5804, 5-[4-(2-methoxy-ethoxy)-phenyl]-7-phenyl-3,7-dihydro-pyrrolo[2,3-d]pyrimidin-4-one], for which the remaining activity at 1 µM on OSR1 was determined as 128%; on IKKe, 106%; on TAK1, 61%; on BRK, 88%; at EPH-A2, 94%; on TESK1 it was 90%. The remaining activity at 1 µM on ULK1 came out at 82%; at PIM3 it was 88%.

Turning to `Oc1ncnc2c1c(-c1ccccc1)cn2-c1ccccc1` [F1386-0303, 5,7-diphenyl-7H-pyrrolo[2,3-d]pyrimidin-4-ol], the remaining activity at 1 µM at OSR1 stood at 102%; on IKKe it was 139%; on TAK1, 102%; on BRK, 108%; at EPH-A2 it was 97%; on TESK1, 101%. Also, the remaining activity at 1 µM turned out to be 84% on ULK1 and 74% at PIM3.

`Nc1ncc(C(=O)NC2CN(C(=O)C3CC3)C2)c2ccc(-c3cccc(F)c3)nc12` [GNE-495]: the residual activity was determined as 109% at OSR1 (1 μM); 79% on IKKe (1 μM); 31% at TAK1 (1 μM); 94% at BRK (1 μM); 112% on EPH-A2 (1 μM); 72% at TESK1 (1 μM). The figures for the residual activity at ULK1 (1 μM) and at PIM3 (1 μM) were 110% and 87%, respectively.

`O=C1Nc2ccc(I)cc2/C1=C/c1cc(Br)c(O)c(Br)c1` [GW5074]: the remaining activity at 1 µM stood at 24% at OSR1; 82% at IKKe; 92% on TAK1; 77% on BRK; 63% at EPH-A2; 32% at TESK1. Besides, the figures for the remaining activity at 1 µM at ULK1 and at PIM3 were 97% and 6%, respectively.

Consider `O=C1Cc2c([nH]c3ccc(Br)cc23)-c2ccccc2N1` [Kenpaullone], for which the remaining activity at 1 µM on OSR1 was found to be 52%; at IKKe, 98%; at TAK1, 113%; on BRK it was 97%; at EPH-A2, 103%; on TESK1, 19%. The remaining activity at 1 µM at ULK1 amounted to 107%; on PIM3 it was 103%.
